In patent US10793520B2, “Sulfonylaminobenzamide compound and pest control agent” (Nippon Soda Co., Ltd., priority 2016, dated 2020):

Test system: Mythimna separata
Experiment: Efficacy test against Mythimna separata (treated artificial feed)
Details: in vivo
Procedure: Five parts of the compound of the present invention, 93.6 parts of dimethylformamide and 1.4 parts of a polyoxyethylene alkyl aryl ether were mixed together and dissolved to obtain an emulsion (1) containing 5% of the active constituent.
The mortality rate was calculated using the following equation. Mortality rate (%)=(number of dead pests/number of test pests)×100
First, 0.8 g of an artificial feed (Insecta LFS, manufactured by Nosan Corporation) and 1 μl of the emulsion (I) were mixed thoroughly, and 0.2 g of the resulting mixture was placed in each of the treatment areas of a plastic test container (volume: 1.4 ml) to complete preparation of a test feed.
Two second-instar larvae of Mythimna separata were inoculated into each treatment area, and the test container was sealed with a plastic lid. The sealed container was placed in a temperature-controlled room at 25° C., and the mortality rate and the amount of feed consumed were determined on the fifth day. The test was repeated. Further, a test performed under the same conditions, but with the exception of excluding the compound of the present invention from the emulsion (1), was used as a control.

| Compound | mortality rate against Mythimna separata, or amount of feed consumed relative to control |
| --- | --- |
| CC(C)C(NC(=O)c1ccc(C(F)(F)F)cc1NS(=O)(=O)C(F)(F)F)c1ccc(Cl)cc1 (racemic) [b-3] | 100%, or the amount of feed consumed was 10% or less |
| O=C(Nc1cc(C(F)(F)F)cc(C(F)(F)F)c1)c1ccc(Cl)cc1NS(=O)(=O)C(F)(F)F [a-1] | 100%, or the amount of feed consumed was 10% or less |
| O=C(Nc1ccc(F)c(C(F)(F)F)c1)c1ccc(C(F)(F)F)cc1NS(=O)(=O)C(F)(F)F [a-2] | 100%, or the amount of feed consumed was 10% or less |
| O=C(Nc1cc(C(F)(F)F)cc(C(F)(F)F)c1)c1ccc(C(F)(F)F)cc1NS(=O)(=O)C(F)(F)F [a-3] | 100%, or the amount of feed consumed was 10% or less |
| O=C(Nc1ccc(C(F)(F)F)cc1)c1ccc(C(F)(F)F)cc1NS(=O)(=O)C(F)(F)F [a-4] | 100%, or the amount of feed consumed was 10% or less |
| O=C(Nc1ccc(C(F)(F)F)cc1Cl)c1ccc(C(F)(F)F)cc1NS(=O)(=O)C(F)(F)F [a-7] | 100%, or the amount of feed consumed was 10% or less |
| O=C(Nc1ccc(C(F)(F)F)cn1)c1ccc(C(F)(F)F)cc1NS(=O)(=O)C(F)(F)F [a-8] | 100%, or the amount of feed consumed was 10% or less |
| O=C(Nc1ccc(C(F)(F)F)c(Cl)c1)c1ccc(C(F)(F)F)cc1NS(=O)(=O)C(F)(F)F [a-10] | 100%, or the amount of feed consumed was 10% or less |
| O=C(Nc1cc(C(F)(F)F)ccc1F)c1ccc(C(F)(F)F)cc1NS(=O)(=O)C(F)(F)F [a-11] | 100%, or the amount of feed consumed was 10% or less |
| O=C(Nc1cccc(OC(F)(F)F)c1)c1ccc(C(F)(F)F)cc1NS(=O)(=O)C(F)(F)F [a-12] | 100%, or the amount of feed consumed was 10% or less |
| Cc1ccc(NC(=O)c2ccc(C(F)(F)F)cc2NS(=O)(=O)C(F)(F)F)cc1 [a-13] | 100%, or the amount of feed consumed was 10% or less |
| O=C(Nc1ccc(Cl)cc1)c1ccc(C(F)(F)F)cc1NS(=O)(=O)C(F)(F)F [a-14] | 100%, or the amount of feed consumed was 10% or less |
| O=C(Nc1ccc(OC(F)(F)F)cc1)c1ccc(C(F)(F)F)cc1NS(=O)(=O)C(F)(F)F [a-15] | 100%, or the amount of feed consumed was 10% or less |
| O=C(Nc1ccc(F)c(C(F)(F)F)c1)c1cc(F)c(F)cc1NS(=O)(=O)C(F)(F)F [a-16] | 100%, or the amount of feed consumed was 10% or less |
| O=C(Nc1c(Cl)cc(C(F)(F)F)cc1Cl)c1ccc(C(F)(F)F)cc1NS(=O)(=O)C(F)(F)F [a-18] | 100%, or the amount of feed consumed was 10% or less |
| O=C(Nc1ncc(C(C(F)(F)F)C(F)(F)F)s1)c1ccc(C(F)(F)F)cc1NS(=O)(=O)C(F)(F)F [a-19] | 100%, or the amount of feed consumed was 10% or less |
| Cc1cc(C(F)(C(F)(F)F)C(F)(F)F)ccc1NC(=O)c1ccc(C(F)(F)F)cc1NS(=O)(=O)C(F)(F)F [a-20] | 100%, or the amount of feed consumed was 10% or less |
| CN(c1cc(C(F)(F)F)ccc1C(=O)Nc1ccc(F)c(C(F)(F)F)c1)S(=O)(=O)C(F)(F)F [a-21] | 100%, or the amount of feed consumed was 10% or less |
| O=C(Nc1ccc(Cl)c(Cl)c1)c1ccc(C(F)(F)F)cc1NS(=O)(=O)C(F)(F)F [a-22] | 100%, or the amount of feed consumed was 10% or less |
| O=C(Nc1ncc(C(F)(F)F)cc1Cl)c1ccc(C(F)(F)F)cc1NS(=O)(=O)C(F)(F)F [a-23] | 100%, or the amount of feed consumed was 10% or less |
| O=C(Nc1ccc(OC(F)(F)F)cc1)c1ccc(OC(F)(F)F)cc1NS(=O)(=O)C(F)(F)F [a-24] | 100%, or the amount of feed consumed was 10% or less |
| O=C(Nc1ccc(S(F)(F)(F)(F)F)cc1)c1ccc(C(F)(F)F)cc1NS(=O)(=O)C(F)(F)F [a-28] | 100%, or the amount of feed consumed was 10% or less |
| O=C(Nc1ccc(OC(F)(F)F)cc1)c1ccc(Br)cc1NS(=O)(=O)C(F)(F)F [a-29] | 100%, or the amount of feed consumed was 10% or less |

| Compound | mortality rate against Mythimna separata, or amount of feed consumed relative to control |
| --- | --- |
| O=C(Nc1ccc(OC(F)(F)F)cc1)c1ccc(C(F)(F)F)cc1NS(=O)(=O)CC(F)(F)F [a-30] | 100%, or the amount of feed consumed was 10% or less |
| O=C(Nc1ccc(OC(F)(F)F)cc1)c1ccc(-n2cncn2)cc1NS(=O)(=O)C(F)(F)F [a-31] | 100%, or the amount of feed consumed was 10% or less |
| O=C(Nc1ccc(OC(F)(F)F)cc1)c1ccc(-c2ccc(Cl)nc2)cc1NS(=O)(=O)C(F)(F)F [a-32] | 100%, or the amount of feed consumed was 10% or less |
| O=C(Nc1ccc(OC(F)(F)F)cc1)c1ccc(C(F)(F)F)cc1NS(=O)(=O)C(F)F [a-33] | 100%, or the amount of feed consumed was 10% or less |
| O=C(Nc1ccc(OC(F)(F)F)cc1)c1ccc(-c2ccc(C(F)(F)F)nc2)cc1NS(=O)(=O)C(F)(F)F [a-34] | 100%, or the amount of feed consumed was 10% or less |
| O=C(Nc1ccc(OC(F)(F)F)cc1)c1ccc(-c2ccc(C(F)(F)F)cc2)cc1NS(=O)(=O)C(F)(F)F [a-35] | 100%, or the amount of feed consumed was 10% or less |
| N#Cc1ccc(C(=O)Nc2ccc(C(F)(F)F)cc2)c(NS(=O)(=O)C(F)(F)F)c1 [a-36] | 100%, or the amount of feed consumed was 10% or less |
| N#Cc1ccc(NC(=O)c2ccc(C(F)(F)F)cc2NS(=O)(=O)C(F)(F)F)cc1C(F)(F)F [a-37] | 100%, or the amount of feed consumed was 10% or less |
| N#Cc1ccc(C(=O)Nc2ccc(C(F)(F)F)cc2)c(NS(=O)(=O)CC(F)(F)F)c1 [a-38] | 100%, or the amount of feed consumed was 10% or less |
| N#Cc1ccc(NC(=O)c2ccc(C(F)(F)F)cc2NS(=O)(=O)C(F)(F)F)cc1 [a-39] | 100%, or the amount of feed consumed was 10% or less |
| N#Cc1ccc(NC(=O)c2ccc(C#N)cc2NS(=O)(=O)C(F)(F)F)cc1 [a-40] | 100%, or the amount of feed consumed was 10% or less |
| O=C(Nc1ccc(F)c(C(F)(F)F)c1)c1ccc(Cl)cc1NS(=O)(=O)C(F)(F)F [a-41] | 100%, or the amount of feed consumed was 10% or less |
| O=C(Nc1ccc(OC(F)(F)F)cc1)c1ccc(-c2ccc(C(F)(F)F)cc2Cl)cc1NS(=O)(=O)C(F)(F)F [a-42] | 100%, or the amount of feed consumed was 10% or less |
| COC(=O)c1cc(Br)ccc1NC(=O)c1ccc(C(F)(F)F)cc1NS(=O)(=O)C(F)(F)F [a-49] | 100%, or the amount of feed consumed was 10% or less |
| O=C(Nc1ccc([N+](=O)[O-])cc1)c1ccc(C(F)(F)F)cc1NS(=O)(=O)C(F)(F)F [a-50] | 100%, or the amount of feed consumed was 10% or less |
| N#Cc1cc(Cl)ccc1NC(=O)c1ccc(C(F)(F)F)cc1NS(=O)(=O)C(F)(F)F [a-51] | 100%, or the amount of feed consumed was 10% or less |
| N#Cc1ccc(NC(=O)c2ccc(C(F)(F)F)cc2NS(=O)(=O)C(F)(F)F)c(F)c1 [a-53] | 100%, or the amount of feed consumed was 10% or less |
| O=C(Nc1ccc(C(F)(F)F)cc1F)c1ccc(C(F)(F)F)cc1NS(=O)(=O)C(F)(F)F [a-54] | 100%, or the amount of feed consumed was 10% or less |
| O=C(Nc1ccc(Cl)cc1C(F)(F)F)c1ccc(C(F)(F)F)cc1NS(=O)(=O)C(F)(F)F [a-55] | 100%, or the amount of feed consumed was 10% or less |
| O=C(Nc1ccnc(OCC(F)(F)F)c1)c1ccc(C(F)(F)F)cc1NS(=O)(=O)C(F)(F)F [a-56] | 100%, or the amount of feed consumed was 10% or less |
| COC(=O)c1cc(F)ccc1NC(=O)c1ccc(C(F)(F)F)cc1NS(=O)(=O)C(F)(F)F [a-57] | 100%, or the amount of feed consumed was 10% or less |
| COC(=O)c1cc(C(F)(F)F)ccc1NC(=O)c1ccc(C(F)(F)F)cc1NS(=O)(=O)C(F)(F)F [a-58] | 100%, or the amount of feed consumed was 10% or less |
| CCOc1cc(C(F)(F)F)ccc1NC(=O)c1ccc(C(F)(F)F)cc1NS(=O)(=O)C(F)(F)F [a-59] | 100%, or the amount of feed consumed was 10% or less |
